Where two headings read alike, the source gives them in different places.
Assays:
[1] = tested on: S. aureus MRSA (DSM 11822, ICB 25701); assay: microbe, parasite or virus in culture; type: cell-based, methicillin resistant S. aureus; settings: for MIC: Staphylococcus aureus, read-out: MIC MRSA (value in brackets); for MIC / MIC MRSA: 22 h; for MIC MRSA / EC50: mean ± standard error, n = 3, TSY; for EC50: read-out: EC50 MRSA
Procedure: (§1) The antibacterial effect of the silver NHC complexes and selected ligands was evaluated in two Gram-positive [Enterococcus faecium, methicillin resistant S. aureus, (MRSA)] and in four Gram-negative (Acinetobacter baumannii, Escherichia coli, Klebsiella pneumoniae, and Pseudomonas aeruginosa) pathogenic bacterial strains using broth microdilution assays. The resulting minimal inhibitory concentrations (MICs, Table 2) and EC50 (Table S6) were determined by a curve fitting procedure. Silver nitrate (AgNO3), SSD, and various antibiotics were used as references.
The importance of the culture medium used in antibacterial assays has been pointed out for antibiotics and in particular for silver.[53]−[55] In our recent studies, tryptic soy yeast (TSY) broth has been used for growing Gram-positive bacteria. Two components thereof, tryptone and yeast extract, have been reported to affect the antibacterial activity of silver nitrate.[55] Moreover, such an effect was also observed for other media containing at least one of those components.[11],[53] […] Silver nitrate served as a reference, and three different growth media were studied, namely, Müller-Hinton Broth (MHB, commonly used for Gram-negative bacteria), TSY broth (commonly used for Gram-positive bacteria), and DMEM supplemented with 10% FCS (commonly used for growth of mammalian and human cells).
(§2) The following strains of ESKAPE panel were utilized and maintained at 37 °C in MHB (21 g/L Müller Hinton broth, pH 7.4) or TSY (30 g/L trypticase soy broth, 3 g/L yeast extract, pH 7.0–7.2) media: A. baumannii (DSM 30007, ATCC 19606), E. coli (DSM1116, ATCC 9637), K. pneumoniae (DSM 11678, ATCC33495), P. aeruginosa PA7 (DSM 24068) in MHB; E. faecium (DSM 20477, ATCC 19434), and S. aureus MRSA (DSM 11822, ICB 25701) in TSY. MIC values were determined following a standardized protocol in broth microdilution assays. The compounds and reference substances (AgNO3 and SSD) were serially diluted from 64 to 1 μg/mL. Starting inocula of 2–8 × 10^5 CFU/mL in MHB or TSY media at 37 °C were used, and serial dilutions were carried out in 96-well microtiter plates in duplicate. After incubation of the plates for 22 h at 37 °C, the absorbance at 600 nm was measured using The Spark multimode microplate reader (Tecan Trading AG). The MIC values for the tested compounds were determined in three independent experiments and presented in μM with standard errors and also in μg/mL. Amikacin (P. aeruginosa), linezolid (S. aureus), and ciprofloxacin (all other strains) served as positive controls. The MIC and EC50 values were determined by curve fitting with Sigma Plot. To determine the effect of the culture medium on the activity of silver compounds, the assay was performed using MHB, TSY, or DMEM (Gibco). To observe the effect of individual components of TSY medium, antibacterial tests were performed using MHB with addition of tryptone (17 g/L) or yeast extract (3 g/L, both were purchased from Sigma).

[2] = tested on: P. aeruginosa PA7 (DSM 24068); assay: microbe, parasite or virus in culture; type: cell-based, Pseudomonas aeruginosa; settings: for MIC: Pseudomonas aeruginosa, DSM24068, 22 h; for MIC P. aeruginosa / EC50: mean ± standard error, n = 3, MHB; for MIC P. aeruginosa: 22 h; for EC50: read-out: EC50 P. aeruginosa
Procedure: as §1, §2

[3] = tested on: A. baumannii (DSM 30007, ATCC 19606); assay: Broth microdilution antibacterial assay; type: cell-based, Acinetobacter baumannii; settings: for MIC: Acinetobacter baumannii; for MIC / MIC A. baumannii: 22 h; for MIC A. baumannii / EC50: mean ± standard error, n = 3, MHB; for EC50: read-out: EC50 A. baumannii
Procedure: as §1, §2

[4] = tested on: K. pneumoniae (DSM 11678, ATCC33495); assay: Broth microdilution antibacterial assay; type: cell-based, Klebsiella pneumoniae; settings: for MIC: Klebsiella pneumoniae; for MIC / MIC K. pneumoniae: 22 h; for MIC K. pneumoniae / EC50: mean ± standard error, n = 3, MHB; for EC50: read-out: EC50 K. pneumoniae
Procedure: as §1, §2

[5] = tested on: E. coli (DSM1116, ATCC 9637); assay: microbe, parasite or virus in culture; type: cell-based, Escherichia coli
Procedure: as §1, §2

[6] = tested on: E. faecium (DSM 20477, ATCC 19434); assay: Broth microdilution antibacterial assay; type: cell-based, Enterococcus faecium; settings: for MIC: Enterococcus faecium; for EC50: read-out: EC50 E. faecium
Procedure: as §1, §2

[7] = read-out: MIC P. aeruginosa (value in brackets), n = 3, MHB, 22 h
[8] = read-out: MIC A. baumannii (value in brackets)
[9] = read-out: MIC K. pneumoniae (value in brackets)
[10] = Escherichia coli, n = 3, MHB, 22 h, read-out: MIC E. coli (value in brackets)
[11] = mean ± standard error, n = 3, MHB
[12] = mean ± standard error, n = 3, MHB, 22 h, read-out: MIC E. coli
[13] = 22 h, read-out: MIC E. faecium, mean ± standard error, n = 3, TSY, 22 h
[14] = mean ± standard error, n = 3, TSY

With `CC(C)[n+]1cn(Cc2ccccn2)c2ccccc21.[Br-]` [L3b, 1-Isopropyl-3-(pyridin-2-ylmethyl)-benzimidazolium Bromide] the MIC [1] was greater than 128 µg/mL, the “MIC MRSA” value [1] was greater than 250 µM and the EC50 [1] was greater than 250 µM. For the same compound, the MIC [2, 7] was greater than 128 µg/mL, the “MIC P. aeruginosa” value [2] was greater than 250 µM and the EC50 [2] was greater than 250 µM. For the same compound, the MIC [3, 8] was no less than 128 µg/mL, the “MIC A. baumannii” value [3] was greater than 250 µM and the EC50 [3] was greater than 250 µM. The MIC [4, 9] was greater than 128 µg/mL, the “MIC K. pneumoniae” value [4] was greater than 250 µM and the EC50 [4] was greater than 250 µM. For the same compound, the MIC [5, 10] was greater than 128 µg/mL, the EC50 [5, 11] was greater than 250 µM and the MIC [5, 12] was greater than 250 µM. The MIC [6, 13] was no less than 250 µM and the EC50 [6, 14] was no less than 250 µM.

`CC(C)[n+]1cn(Cc2ccccn2)c2ccccc21.[I-]` [L3c, 1-Isopropyl-3-(pyridin-2-ylmethyl)-benzimidazolium Iodide] was tested, and the MIC [1] was greater than 128 µg/mL, the “MIC MRSA” value [1] was greater than 250 µM and the EC50 [1] was greater than 250 µM. For the same compound, the MIC [2, 7] was greater than 128 µg/mL, the “MIC P. aeruginosa” value [2] was no less than 250 µM and the EC50 [2] was no less than 250 µM. For the same compound, the MIC [3, 8] was greater than 128 µg/mL, the “MIC A. baumannii” value [3] was greater than 250 µM and the EC50 [3] was greater than 250 µM. For the same compound, the MIC [4, 9] was greater than 128 µg/mL, the “MIC K. pneumoniae” value [4] was greater than 250 µM and the EC50 [4] was greater than 250 µM. The MIC [5, 10] was greater than 128 µg/mL, the EC50 [5, 11] was greater than 250 µM and the MIC [5, 12] was greater than 250 µM. The MIC ([6]; 22 h, read-out: MIC E. faecium (value in brackets)) was greater than 128 µg/mL, the “MIC E. faecium” value ([6]; mean ± standard error, n = 3, TSY, 22 h) was greater than 250 µM and the EC50 [6, 14] was greater than 250 µM.

Work on `NCC[C@H](O)C(=O)N[C@@H]1C[C@H](N)[C@@H](O[C@H]2O[C@H](CN)[C@@H](O)[C@H](O)[C@H]2O)[C@H](O)[C@H]1O[C@H]1O[C@H](CO)[C@@H](O)[C@H](N)[C@H]1O` [amikacin, reference compound] yielded an MIC ([2]; read-out: MIC P. aeruginosa) of 4.4 ± 1.3 µM and an MIC ([2]; read-out: MIC P. aeruginosa (value in brackets)) of 2.6 µg/mL.

Compound `O=C(O)c1cn(C2CC2)c2cc(N3CCNCC3)c(F)cc2c1=O` [ciprofloxacin, reference compound] has an MIC ([3]; read-out: MIC A. baumannii) of 0.63 ± 0.22 µM, an MIC [3, 8] of 0.2 µg/mL and an MIC ([4]; read-out: MIC K. pneumoniae) of 2.5 ± 0.9 µM. The MIC [4, 9] was 0.8 µg/mL, the MIC ([5]; Escherichia coli, 22 h, read-out: MIC E. coli) was 0.5 µM and the MIC ([5]; Escherichia coli, 22 h, read-out: MIC E. coli (value in brackets)) was 0.16 µg/mL. It also gave an MIC ([5]; Escherichia coli, read-out: MIC E. coli DSM 1116 in MHB) of 0.47 µM, an MIC ([5]; Escherichia coli, read-out: MIC E. coli DSM 1116 in MHB + tryptone) of 0.47 µM and an MIC ([5]; Escherichia coli, read-out: MIC E. coli DSM 1116 in MHB + yeast extract) of 0.47 µM. The MIC ([6]; 22 h, read-out: MIC E. faecium (value in brackets), n = 3, TSY, 22 h) was 5 µg/mL and the MIC [6, 13] was 15.1 ± 1 µM.

— PMC11091889, “Silver Organometallics that are Highly Potent Thioredoxin and Glutathione Reductase Inhibitors: Exploring the Correlations of Solution Chemistry with the Strong Antibacterial Effects” (ACS Infectious Diseases, 2024)
